Literature values as cited in patent publication US9050351B2, “Topical compositions designed to maintain or restore the integrity of the mucous membranes” (RICEFARMA S.R.L., priority 2010, dated 2015).

Tests used:
[1] = as disclosed in WO93/19730

C[N+](C)(C)CCOP(=O)([O-])OC[C@H](O)CO [choline alfoscerate, L-alpha-glycerylphosphorylcholine]
incidence of skin irritation, eye irritation and skin sensitisation [1]: low
systemic toxicity [1]: practically devoid
topical tolerability [1]: marked
solubility in water and ethanol: highly soluble
